The values that follow come from patent US7622256B2, “Method for selecting compounds that modulate MIF-induced expression of ICAM-1 and/or VCAM-1” (Avigen, Inc., priority 2006, dated 2009).

The test system of assay [1] is rMIF-induced cell surface ICAM-1 expression in PBMCs. Briefly: Cell surface ELISA of ICAM-1 expression in stimulated PBMC culture. The assay is classed as cell-based, Human. The following applies: for % change in ICAM-1 expression with ibudilast: normalized to no stimulant levels, n = 2. As to the method:
(§1) In order to determine whether ibudilast antagonized MIF activity, a peripheral blood mononuclear cell (PBMC) culture model was used. Human PBMCs were isolated by Ficoll gradient. Cells were plated in a 96-well tissue culture plate in RPMI medium without serum and incubated overnight to achieve quiescence. They were then treated with 0.1% DMSO (vehicle) or ibudilast at 10 μM, one hour prior to stimulation with recombinant human MIF (0.8, 8, or 80 nM) or LPS (10 ng/mL). 9 hours post-stimulation, the adherent cells were fixed and analyzed for expression of […] adhesion molecule-1 (ICAM-1) and vascular cell adhesion molecule-1 (VCAM-1) via cell surface enzyme linked immunosorbent assay (ELISA).

Assay [2] deals with rMIF-induced cell surface VCAM-1 expression in PBMCs. Kind of assay: Cell surface ELISA of VCAM-1 expression in stimulated PBMC culture. The following applies: for % change in VCAM-1 expression with ibudilast: normalized to no stimulant levels, n = 2. The assay is classed as cell-based, Human. As to the method: as §1
(In general: An ELISA detects its analyte on a solid surface through an enzyme-linked reagent.)

[3] abbreviates: 10 μM ibudilast 1 h before stimulant, LPS 10 ng/mL, 9 hours post-stimulation.
Setting [4] is: 10 μM ibudilast 1 h before stimulant, MIF 0.8 nM, 9 hours post-stimulation.
Setting [5] is: 10 μM ibudilast 1 h before stimulant, MIF 8 nM, 9 hours post-stimulation.
Setting [6] is: 10 μM ibudilast 1 h before stimulant, MIF 80 nM, 9 hours post-stimulation.
Where [7] appears, read: 10 μM ibudilast, No Stimulant (quiescent cells).
The mark [8] stands for this setting: 10 μM ibudilast, recombinant human MIF stimulation.

Take `CC(C)C(=O)c1c(C(C)C)nn2ccccc12` [ibudilast, 3-isobutyryl-2-isopropylpyrazolo[1,5-a]pyridine]: the “% change in ICAM-1 expression with ibudilast” value in assay [1] (setting [3]) is 74.5%; in assay [1] (setting [4]), −2.5%; in assay [1] (setting [5]), −0.95%; in assay [1] (setting [6]) it was −1.3%; in assay [1] (setting [7]), 30.9%. Also, in assay [1] (10 μM ibudilast, LPS 10 ng/mL), the “effect on LPS induction of ICAM-1 (in words)” value is “not significantly affected”. Besides, the “effect on recombinant MIF-induced expression of ICAM-1 (in words)” value in assay [1] (setting [8]) was “antagonizes”. The “% change in VCAM-1 expression with ibudilast” value was −1.5% in assay [2] (setting [3]); −2.9% in assay [2] (setting [4]); 4.4% in assay [2] (setting [5]); 5.4% in assay [2] (setting [6]); 95.1% in assay [2] (setting [7]). Further, the “effect on LPS induction of VCAM-1 (in words)” value in assay [2] (10 μM ibudilast, LPS 10 ng/mL) was “not significantly affected”. Moreover, the “effect on recombinant MIF-induced expression of VCAM-1 (in words)” value in assay [2] (setting [8]) is listed as “antagonizes”.
